# Values joined by “and” are separate entries in the source; they are usually repeats but may differ in a detail not shown here. Equal entries are not always repeated. Where two headings read alike, the source gives them in different places.
# What was measured:
# [1] = Plasma 5-HTP pharmacokinetics of 24 h continuous IV 5-HTP infusion, Phase 1 study; format: in vivo, human
# Description: Study Design. A Phase 1, randomized, double-blind, placebo-controlled, single ascending dose study was performed to evaluate the safety, tolerability and pharmacokinetics (PK) of 5-HTP solution for IV infusion when administered to healthy adults taking a selective serotonin reuptake inhibitor (SSRI), escitalopram, for 3 weeks. Study duration was 37±3 days. The total individual subject participation time was no more than 66 days including screening, dosing, and follow-up phases. The IV infusion duration was 24 h, dosing with 5-HTP solution for IV infusion (see Example 3, above) or placebo (0.9% saline).
# Subjects. A total of 39 healthy male and female subjects were randomized across 5 cohorts, each with 8 subjects (6 active:2 placebo) per cohort except for Cohort 5 (5 active:2 placebo). For each cohort, first 2 sentinel subjects received IV 5-HTP (N=1) or placebo (N=1) prior to dosing of the remaining 5 or 6 subjects.
# IV infusion. 5-HTP solution for IV infusion or placebo was administered IV at a constant rate or ramped rate of infusion over 24 hr.
# Constant rate infusion. 5-HTP solution for IV infusion was administered at constant infusion rates of 1 mg/kg/24 hr in Cohort 1 and 3 mg/kg/24 hr in Cohort 2. The infusion rate was 41.67 ml/h.
# Ramp rate infusion. To gradually elevate 5-HTP plasma levels, 5-HTP solution for IV infusion was administered at a ramp rate of infusion for Cohorts 3, Cohort 4, and Cohort 5, at average 5-HTP infusion rates of 3 mg/kg/24 hr, 2 mg/kg/24 hr and 1 mg/kg/24 hr, respectively. The infusion volume rates were 13.89 ml/hr at T=0-4 hr; 27.78 ml/hr at T=4-8 hr; 41.67 ml/hr at T=8-12 hr; and 55.55 ml/hr at T=12-24 hr.
# Bioanalysis. Plasma samples for 5-HTP analysis were collected and stored at −80° C. Plasma samples for escitalopram analysis were collected and stored at −80° C. Plasma 5-HTP levels and plasma escitalopram levels were measured using standard liquid chromatography with tandem mass spectrometry (LC-MS-MS) methods. For 5-HTP analysis, plasma samples were collected at T=0, 1, 2, 3, 4, 5, 6, 8, 10, 12, 14, 22, 24, 26, 28, 30, 32, 36, and 48 hr. For escitalopram analysis, plasma samples were collected on Day 7, Day 21 (pre-infusion), Day 22 (end of infusion), and Day 23 (24 hr after end of infusion). Plasma escitalopram levels were averaged across days 21-23, during the time-period when subjects were admitted to the clinic and received 5-HTP solution for IV infusion or placebo.
# Statistical analysis. Subjects receiving placebo across the 5 cohorts (N=2 per cohort) were pooled. Descriptive statistics were calculated for each quantitative variable within each treatment group and placebo (n, mean, standard deviation, median, minimum, maximum).
# PK analysis of plasma 5-HTP. The PK population included subjects who received 5-HTP solution for IV infusion and completed the 24 h infusion. PK parameters were computed for each Cohort/dose/infusion paradigm. Placebo data from all cohorts were pooled.
# [2] = some solvents (Jacobsen et al, 2016a); cited from earlier work
# [3] = Dose-proportionality assessment (power model) of IV 5-HTP continuous infusion; format: in vivo, human; conditions: doses up to 3 mg/kg/24 hr
# Description: Background: The term dose proportionality denotes a proportional and linear relationship between dose and a pharmacokinetic measure, for the specific (i) dose-range, (i) dosing route, and (iii) dosing regimen investigated. More particularly, if doubling the dose doubles the pharmacokinetic measure of maximal (CMax) or total (AUC) systemic exposure to the compound administered, then dose proportionality is present, at least within the dose ranges examined. […] The relationship between dose and plasma compound concentration (C (e.g., CMax or AUC)) can be described via the following equation: C=α dose^β When β=1, dose proportionality is present. If so, C=α dose. α is a constant relating dose to C, for a given range of C and given dose units, and is identical to the slope of the regression line. In the power model (Smith et al, 2000), dose proportionality is assessed via the following linear equation: log(C)=log(α)+β×log(dose)+error Based on standard statistical methods for linear models, estimates for β together with confidence limits can be derived. […]
# Methods: Applying the approach by Smith (Smith et al, 2000), using a general linear model and SAS software Version 9.4, dose proportionality of continuously administered IV 5-HTP was assessed using the data in Table 9, below. […]
# [4] = both sexes, human, plasma, intravenous, 1 mg/kg, individual subjects, Constant rate 1 mg/kg/24 hr
# [5] = both sexes, human, plasma, intravenous, 1 mg/kg, individual subjects, Ramp rate 1 mg/kg/24 hr
# [6] = both sexes, human, plasma, intravenous, 2 mg/kg, individual subjects, Ramp rate 2 mg/kg/24 hr
# [7] = both sexes, human, plasma, intravenous, 3 mg/kg, individual subjects, Constant rate 3 mg/kg/24 hr
# [8] = both sexes, human, plasma, intravenous, 3 mg/kg, individual subjects, Ramp rate 3 mg/kg/24 hr
# [9] = both sexes, human, plasma, iv, 1 mg/kg, Cohort 1, constant rate 1 mg/kg/24 hr IV, healthy adults on escitalopram, mean, N=6
# [10] = both sexes, human, plasma, iv, 1 mg/kg, Cohort 5, ramp rate 1 mg/kg/24 hr IV, healthy adults on escitalopram, mean, N=5
# [11] = both sexes, human, plasma, iv, 2 mg/kg, Cohort 4, ramp rate 2 mg/kg/24 hr IV, healthy adults on escitalopram, mean, N=6
# [12] = both sexes, human, plasma, iv, 3 mg/kg, Cohort 2, constant rate 3 mg/kg/24 hr IV, healthy adults on escitalopram, mean, N=4 completers
# [13] = both sexes, human, plasma, iv, 3 mg/kg, Cohort 3, ramp rate 3 mg/kg/24 hr IV, healthy adults on escitalopram, mean, N=6
# [14] = individual subjects, Constant rate 1 mg/kg/24 hr
# [15] = individual subjects, Constant rate 3 mg/kg/24 hr
# [16] = individual subjects, Ramp rate 1 mg/kg/24 hr
# [17] = individual subjects, Ramp rate 2 mg/kg/24 hr
# [18] = individual subjects, Ramp rate 3 mg/kg/24 hr
structure (smiles),measurement,setting,value
"N[C@@H](Cc1c[nH]c2ccc(O)cc12)C(=O)O [5-HTP, 5-hydroxytryptophan]","differences in CAve, AUCInf or AUCLast between constant rate and ramp rate infusion","[1]; 1 mg/kg/24 hr or 3 mg/kg/24 hr average infusion rates, p>0.05, unpaired t-test",no significant differences
same,CAve (0-24 h),"[1]; Cohort 1, constant rate 1 mg/kg/24 hr IV, healthy adults on escitalopram, mean, N=6",94 ng/mL
same,"initial 5-HTP plasma levels, T=1 h","[1]; Cohort 2, constant 3 mg/kg/24 hr, the 2 discontinued subjects",304 ng/mL
same,CAve (0-24 h),"[1]; Cohort 2, constant rate 3 mg/kg/24 hr IV, healthy adults on escitalopram, mean, N=4 completers",268 ng/mL
same,CAve (0-24 h),"[1]; Cohort 4, ramp rate 2 mg/kg/24 hr IV, healthy adults on escitalopram, mean, N=6",160 ng/mL
same,CAve (0-24 h),"[1]; Cohort 5, ramp rate 1 mg/kg/24 hr IV, healthy adults on escitalopram, mean, N=5",82 ng/mL
same,AUC(0-inf),[1]; [4],2920 ng·h/mL
same,AUC(0-t),[1]; [4],2830 ng·h/mL
same,CMax,"[1]; both sexes, human, plasma, intravenous, 1 mg/kg, individual subjects, Constant rate 1 mg/kg/24 hr, read-out: CMax",118 ng/mL
same,AUC(0-inf),[1]; [5],2810 ng·h/mL
same,AUC(0-t),[1]; [5],2770 ng·h/mL
same,CMax,"[1]; both sexes, human, plasma, intravenous, 1 mg/kg, individual subjects, Ramp rate 1 mg/kg/24 hr, read-out: CMax",179 ng/mL
same,AUC(0-inf),[1]; [6],6650 ng·h/mL
same,AUC(0-t),[1]; [6],6540 ng·h/mL
same,CMax,"[1]; both sexes, human, plasma, intravenous, 2 mg/kg, individual subjects, Ramp rate 2 mg/kg/24 hr, read-out: CMax",407 ng/mL
same,AUC(0-inf),[1]; [7],8000 ng·h/mL
same,AUC(0-t),[1]; [7],7960 ng·h/mL
same,CMax,"[1]; both sexes, human, plasma, intravenous, 3 mg/kg, individual subjects, Constant rate 3 mg/kg/24 hr, read-out: CMax",397 ng/mL
same,AUC(0-inf),[1]; [8],11200 ng·h/mL
same,AUC(0-t),[1]; [8],11100 ng·h/mL
same,CMax,"[1]; both sexes, human, plasma, intravenous, 3 mg/kg, individual subjects, Ramp rate 3 mg/kg/24 hr, read-out: CMax",613 ng/mL
same,AUC(0-inf),[1]; [9],2970 ng·h/mL
same,AUC(0-t),[1]; [9],2910 ng·h/mL
same,half-life,[1]; [9],3.71 h
same,CMax,"[1]; both sexes, human, plasma, iv, 1 mg/kg, Cohort 1, constant rate 1 mg/kg/24 hr IV, healthy adults on escitalopram, mean, N=6, read-out: CMax",141 ng/mL
same,AUC(0-inf),[1]; [10],3290 ng·h/mL
same,AUC(0-t),[1]; [10],3240 ng·h/mL
same,half-life,[1]; [10],4.52 h
same,CMax,"[1]; both sexes, human, plasma, iv, 1 mg/kg, Cohort 5, ramp rate 1 mg/kg/24 hr IV, healthy adults on escitalopram, mean, N=5, read-out: CMax",209 ng/mL
same,AUC(0-inf),[1]; [11],6440 ng·h/mL
same,AUC(0-t),[1]; [11],6330 ng·h/mL
same,half-life,[1]; [11],4.4 h
same,CMax,"[1]; both sexes, human, plasma, iv, 2 mg/kg, Cohort 4, ramp rate 2 mg/kg/24 hr IV, healthy adults on escitalopram, mean, N=6, read-out: CMax",395 ng/mL
same,AUC(0-inf),[1]; [12],8850 ng·h/mL
same,AUC(0-t),[1]; [12],8800 ng·h/mL
same,half-life,[1]; [12],4.84 h
same,CMax,"[1]; both sexes, human, plasma, iv, 3 mg/kg, Cohort 2, constant rate 3 mg/kg/24 hr IV, healthy adults on escitalopram, mean, N=4 completers, read-out: CMax",427 ng/mL
same,AUC(0-inf),[1]; [13],11000 ng·h/mL
same,AUC(0-t),[1]; [13],10900 ng·h/mL
same,half-life,[1]; [13],5.1 h
same,CMax,"[1]; both sexes, human, plasma, iv, 3 mg/kg, Cohort 3, ramp rate 3 mg/kg/24 hr IV, healthy adults on escitalopram, mean, N=6, read-out: CMax",~592 ng/mL
same,time to average steady state plasma levels after start of infusion,[1]; constant 5-HTP infusion rates 1 mg/kg/24 hr and 3 mg/kg/24 hr,approximately 4 h
same,concentration at 1 h,"[1]; human, plasma, intravenous, 3 mg/kg/24 hr, Cohort 2, constant 3 mg/kg/24 hr, the 2 discontinued subjects, read-out: initial 5-HTP plasma levels, T=1 h",248 ng/mL
same,AUCInf,[1]; [14],2551.36 ng·h/mL and 2930.09 ng·h/mL and 3832.68 ng·h/mL and 2234.41 ng·h/mL and 3351.07 ng·h/mL
same,AUCLast,[1]; [14],2530.16 ng·h/mL and 2885.80 ng·h/mL and 3762.18 ng·h/mL and 2185.63 ng·h/mL and 3291.36 ng·h/mL
same,CMax,[1]; [14],112 ng/mL and 143 ng/mL and 189 ng/mL and 114 ng/mL and 169 ng/mL
same,AUCInf,[1]; [15],9781.13 ng·h/mL and 7039.23 ng·h/mL and 10597.49 ng·h/mL
same,AUCLast,[1]; [15],9690.71 ng·h/mL and 6999.32 ng·h/mL and 10537.75 ng·h/mL
same,CMax,[1]; [15],480 ng/mL and 320 ng/mL and 512 ng/mL
same,AUCInf,[1]; [16],4399.83 ng·h/mL and 3862.84 ng·h/mL and 2807.47 ng·h/mL and 2572.27 ng·h/mL
same,AUCLast,[1]; [16],4345.10 ng·h/mL and 3799.02 ng·h/mL and 2767.78 ng·h/mL and 2505.93 ng·h/mL
same,CMax,[1]; [16],266 ng/mL and 247 ng/mL and 192 ng/mL and 160 ng/mL
same,AUCInf,[1]; [17],6254.18 ng·h/mL and 6207.11 ng·h/mL and 6316.80 ng·h/mL and 6043.68 ng·h/mL and 7134.20 ng·h/mL
same,AUCLast,[1]; [17],6191.76 ng·h/mL and 6095.21 ng·h/mL and 6245.16 ng·h/mL and 5955.75 ng·h/mL and 6968.01 ng·h/mL
same,CMax,[1]; [17],373 ng/mL and 352 ng/mL and 385 ng/mL and 414 ng/mL and 437 ng/mL
same,AUCInf,[1]; [18],11393.96 ng·h/mL and 13786.66 ng·h/mL and 10786.90 ng·h/mL and 8427.71 ng·h/mL and 10152.61 ng·h/mL
same,AUCLast,[1]; [18],11310.89 ng·h/mL and 13698.51 ng·h/mL and 10738.77 ng·h/mL and 8350.62 ng·h/mL and 10098.28 ng·h/mL
same,CMax,[1]; [18],660 ng/mL and 679 ng/mL and 644 ng/mL and 454 ng/mL and 502 ng/mL
same,time to average steady state plasma levels,"[1]; variable (ramp) infusion, average rate 1-, 2-, and 3 mg/kg/24 hr",14 to 24 h
same,soluble in some solvents,[2],up to 100 mg/ml
same,dose proportionality,[3],dose proportionality for doses up to 3 mg/kg/24 hr was accepted
